{
  "source": "patent US20090298903A1",
  "about": "“USE OF TETRAMIC ACID DERIVATIVES FOR INSECT CONTROL” (priority 2006, published 2009)",
  "format_in_all_cases": "in vivo",
  "key": {"[1]": {"system": "apple capsid bug (Plesiocoris rugicollis)", "assay": "Example 1B: apple trees against apple capsid bug", "conditions": "37 d after treatment, larvae on twigs, Deltamethrin (EC 025) 3.75, (I-4) (150 OD) 30 g a.s./ha/m crown level", "procedure": "Apple trees cv. “Holsteiner Cox” which are approximately 14 years old are treated, in 3 replications, against the apple capsid bug (Plesiocoris rugicollis). Here, the active substance Example (I-4) (150 OD) is tested at the specified application rate against the commercial standard Deltamethrin liquid (EC 025) at the specified application rate. The application is carried out with a knapsack sprayer. Here, the treatment is effected with a water application rate of 500 l/ha/m crown level.\nThe test is evaluated 37 days after the treatment by scoring the destruction of the larvae on the twigs with the aid of the Abbott method."}, "[2]": {"system": "Caliothrips phaseoli", "assay": "Example 3: courgettes against Caliothrips phaseoli", "conditions": "8 d after treatment, nymphs on 5 leaves, Endosulfan (350 EC) 525, (I-4) (240 SC + 0.1% rapeseed oil methyl ester) 72 g a.s./ha", "procedure": "Plots approx. 22 m^2 in size which are planted with courgettes cv. “Italiana negra” are treated, in three replications, against Caliothrips phaseoli. The application is effected with a motor-driven knapsack sprayer. Here, the active substance Example (I-4) (240 SC), in a tank mix together with 0.1% a.s. rapeseed oil methyl ester (500 EW) and the commercial standard endosulfan (350 EC), is tested at the specified application rates. The water application rate is approx. 510 l/ha.\nThe test is evaluated 8 days after the treatment by scoring the destruction of the animals (nymphs) on 5 leaves."}, "[3]": {"system": "Empoasca onukui", "assay": "Example 15: tea plants against Empoasca onukui", "conditions": "larvae on shoots", "procedure": "Plots approx. 4 m^2 in size which are planted with tea plants cv. “Yabukita” are treated, in three replications, against Empoasca onukui. The application is carried out with a knapsack sprayer which is operated with pressurized air. Here, the active substance Example (I-4) (150 OD) is tested against the commercial standard Admire (10 WP) at the specified application rates. The water application rate is 10 000 l/ha.\nThe test is evaluated 15 and 29 days after the treatment by scoring the destruction rate of the larvae in percent on the shoots."}, "[4]": {"system": "Pegomya spp.", "assay": "Example 17: winter wheat against Pegomya spp.", "conditions": "3 days after the last of two treatments (interval 7 days), larvae, Thiacloprid (240 OD) 72, (I-4) (240 SC + 0.2% rapeseed oil methyl ester) 96 g a.s./ha", "procedure": "Plots approx. 25 m^2 in size which are planted with winter wheat cv. “Capfern” are treated, in four replications, against Pegomya spp. The application is carried out with a knapsack sprayer which is operated with pressurized air. Here, the active substance Example (I-4) (240 SC), in a tank mix with 0.2% a.s. rapeseed oil methyl ester (500 EW) and the commercial standard Thiacloprid (240 OD), is tested at the specified application rates. Two applications are carried out at an interval of 7 days. The water application rate is 350 l/ha.\n(§1) The test is evaluated 3 days after the last treatment by scoring the destruction rate of the larvae on the plants."}, "[5]": {"system": "Dasineura mali", "assay": "Example 19 a): apple trees against Dasineura mali", "conditions": "59 d after treatment; larvae, apple twigs; Pirimicarb (50 WG) 125, (I-4) (100 OD) 72 g a.s./ha/m crown level", "procedure": "Apple trees cv. “Elan” which are approximately 16 years old are treated, in 3 replications, against the Dasineura mali. Here, the active substance Example (I-4) (100 OD) is tested at the specified application rate against the commercial standard and Pirimicarb (50 WG) at the specified application rate. The application is carried out with a spray diffuser. Here, the treatment is effected with a water application rate of 1000 l/ha/m crown level.\nThe test is evaluated 59 days after the treatment by scoring the destruction of the larvae on the basis of the adults present on the twigs with the aid of the Abbott method."}, "[6]": {"system": "Dasineura pyri", "assay": "Example 19b): pear trees against Dasineura pyri", "conditions": "9 d after treatment 2, larvae in rolled leaves", "procedure": "Fully-grown pear trees cv. “Conference” of crown height approx. 3.5 m are treated, in four replications, against Dasineura pyri. Here, the active substance Example (I-4) is tested as (150 OD) and (240 SC) together with 0.1% a.s. rapeseed oil methyl ester (Mero 733 1R) in a tank mix at the specified application rate against the commercial standard Endosulfan (350 EC) at the specified application rate. The application is carried out with a spray diffuser. Here, the treatment is effected with a water application rate of 1000 l/ha/m crown level. Two applications are carried out at an interval of 7 days.\nThe test is evaluated 9 days after treatment 2 by scoring the destruction rate of the larvae in the rolled leaves, using the Abbott method."}, "[7]": {"system": "Lema melanopa", "assay": "Example 25: winter wheat against Lema melanopa", "conditions": "3 days after the last of two treatments (interval 7 days), larvae, Calypso (240 OD) 72, (I-4) (240 SC + 0.2% rapeseed oil methyl ester) 96 g a.s./ha", "procedure": "Plots approx. 25 m^2 in size which are planted with winter wheat cv. “Capfem” are treated, in four replications, against Lema melanopa. The application is carried out with a knapsack sprayer which is operated with pressurized air. Here, the active substance Example (I-4) (240 SC), in a tank mix together with 0.2% a.s. rapeseed oil methyl ester (500 EW) and the commercial standard Calypso (240 OD), is applied at the specified application rates. Two applications are carried out at an interval of 7 days, with a water application rate of 350 l/ha.\nas §1"}, "[8]": {"system": "Carpocapsa pomonella", "assay": "Example 29: apple trees against Carpocapsa pomonella, fruit damage", "conditions": "application rate printed as g a.s./ha: Chlorpyrifos-methyl (25 WP) 0.1, (I-4) (240 SC + 0.1% Steffes Mero) 0.012", "procedure": "Approx. 15-year-old apple trees cv. “Golden Delicious” are treated, in four replications, against Carpocapsa pomonella. The application is carried out with an atomizer. Here, the active substance Example (I-4) (240 SC) in a tank mix together with 0.1% a.s. of the adjuvant Steffes Mero (rapeseed oil methyl ester) (733 1R) and the commercial standard Chlorpyrifos-methyl (25 WP) are tested at the specified application rates. The water application rate is 1052 l/ha. Two applications are carried out at an interval of 13 days.\nThe test is evaluated 32 days after treatment 2 by scoring the fruit damage with the aid of the Abbott formula."}},
  "data": [
    {"compound": "CCOC(=O)OC1=C(c2cc(C)ccc2C)C(=O)N[C@]12CC[C@@H](OC)CC2", "note": "[Example (I-4)]", "values": [
      {"measurement": "Efficacy (%) Abbott 37 d", "setting": "[1]", "result": 96, "unit": "%"},
      {"measurement": "Efficacy (% Abbott) 8 d", "setting": "[2]", "result": 71.3, "unit": "% Abbott"},
      {"measurement": "Efficacy (% Abbott) 15 d", "setting": "[3]; 15 d after treatment, Admire (10 WP) 0.005 % a.s., (I-4) (150 OD) 0.01 % a.s.", "result": 73, "unit": "% Abbott"},
      {"measurement": "Efficacy (% Abbott) 29 d", "setting": "[3]; 29 d after treatment, Admire 0.005 % a.s., (I-4) 0.01 % a.s.", "result": 78.8, "unit": "% Abbott"},
      {"measurement": "Efficacy (% Abbott) 10 d", "setting": "[4]", "result": 100, "unit": "% Abbott"},
      {"measurement": "Efficacy (%) Abbott 59 d", "setting": "[5]", "result": 95.1, "unit": "%"},
      {"measurement": "Efficacy (% Abbott) 9 d", "setting": "[6]; (I-4) as 150 OD, 150 g a.s./ha/m crown level", "result": 100, "unit": "% Abbott"},
      {"measurement": "Efficacy (% Abbott) 9 d", "setting": "[6]; Endosulfan (350 EC) 472.5, (I-4) as 240 SC + Mero (0.1% rapeseed oil methyl ester) 120 g a.s./ha/m crown level", "result": 94.6, "unit": "% Abbott"},
      {"measurement": "Efficacy (% Abbott) 10 d", "setting": "[7]", "result": 82.1, "unit": "% Abbott"},
      {"measurement": "Efficacy (% Abbott) 32 d after treatment 2", "setting": "[8]", "result": 73.7, "unit": "% Abbott"}
    ]}
  ]
}
